One series deals with HEL92.1.7 cells. Kind of series: cellular viability by CellTiter Blue assay, single agents and matrix combination. The class given is cell-based. Particulars: Homo sapiens, HEL 92.1.7, 72 h, single agent, three days of treatment. The protocol:
HEL92.1.7 cells were plated in 96-well plates and then treated with Compound 2 or MK-1775 as single agents. After three days of treatment, cellular viability was assessed by CellTiter Blue assay (Promega). Data represent the mean±S.E. (n=5 for Compound 2, n=2 for MK-1775). […] HEL92.1.7 cells were plated in 96-well plates and then treated with combinations of Compound 2 and MK-1775 in matrix fashion at the indicated concentrations. Three days after treatment cellular viability was assessed by CellTiter Blue assay. […] Data represent the average of two independent experiments (triplicate plates were averaged for each individual experiment).

For series [1] the following is noted: cited from earlier work.

pIC50: −log10 of the molar value. Where two headings read alike, the source gives them in different places.

A word on the pIC50: it is the negative decadic logarithm of the IC50, by convention in mol/L. `CC(C)C(=O)Nc1c[nH]c2ncc(Br)c(N3CCC[C@@H](N)C3)c12` [Compound 2, (R)—N-(4-(3-aminopiperidin-1-yl)-5-bromo-1H-pyrrolo [2,3-b]pyridin-3-yl)isobutyramide]: in the series on HEL92.1.7 cells, the negative logarithm of the IC50 (pIC50) is 7.52.
Regarding `C=CCn1c(=O)c2cnc(Nc3ccc(N4CCN(C)CC4)cc3)nc2n1-c1cccc(C(C)(C)O)n1` [MK-1775], in the series with HEL92.1.7 cells, the pIC50 was 6.99. Moreover, the MTD in series [1] (multiple dose (5 BID doses) in combination with carboplatin (AUC 5), trial ongoing) was 225 mg; in series [1] (multiple dose (5 BID doses) in combination with cisplatin (75 mg/m^2), trial ongoing), 125 mg; in series [1] (multiple dose in combination with gemcitabine (1000 mg/m^2), BID day 1) it was 50 mg; in series [1] (multiple dose in combination with gemcitabine (1000 mg/m^2), BID day 2), 25 mg; in series [1] (multiple dose in combination with gemcitabine (1000 mg/m^2), QD day 3), 25 mg; in series [1] (single dose in combination with carboplatin (AUC 5), patients with advanced solid tumors), 325 mg. Moreover, the MTD in series [1] (single dose in combination with cisplatin (75 mg/m^2), patients with advanced solid tumors) is reported as 200 mg; in series [1] (single dose in combination with gemcitabine (1000 mg/m^2), patients with advanced solid tumors), 200 mg.
